Where a name gives a salt, the structure may show the parent alone.

The first assay concerns Acinetobacter baumannii ATCC17961. Description: Antimicrobial susceptibility testing: 90% growth inhibitory concentration (IC90) determination. The settings on record: 90% growth inhibitory concentration against Acinetobacter baumannii ATCC17961, Iso-Sensitest broth, OD 600 nm over 16 h; read-out: ATCC 17961 IC90. Format: cell-based. The method, then: The in vitro antimicrobial activity of the compounds was determined according to the following procedure: The assay used a 10-points Iso-Sensitest broth medium to measure quantitatively the in vitro activity of the compounds against Acinetobacter baumannii ATCC17961. Stock compounds in DMSO were serially twofold diluted (e.g. range from 10 to 0.0195 μM final concentration) in 384 wells microtiter plates and inoculated with 49 μL the bacterial suspension in Iso-Sensitest medium to have a final cell concentration of ˜5×10^(5) CFU/mL in a final volume/well of 50 μL/well. Microtiter plates were incubated at 35±2° C. Bacterial cell growth was determined with the measurement of optical density at λ=600 nm each min over a time course of 16 h. Growth inhibition was calculated during the logarithmic growth of the bacterial cells with determination of the concentration inhibiting 50% (IC50) and 90% (IC90) of the growth. Table 1 provides the 90% growth inhibitory concentrations (IC90) in micromoles per liter of the compounds of present invention obtained against the strain Acinetobacter baumannii ATCC17961.
Take `Cn1c(-c2cn(-c3ccc(NCCN)cn3)nc2C(F)(F)F)cnc1C(=O)Nc1ccc(C(=O)N2CCN(C(=O)[C@H]3CC[N@+](CC(=O)O)(CC4CNC4)CC3)CC2)c(Cl)c1` [Example 10, cis-2-[4-[4-[4-[[5-[1-[5-(2-Aminoethylamino)-2-pyridyl]-3-(trifluoromethyl)pyrazol-4-yl]-1-methyl-imidazole-2-carbonyl]amino]-2-chloro-benzoyl]piperazine-1-carbonyl]-1-(azetidin-3-ylmethyl)piperidin-1-ium-1-yl]acetic Acid.1:1 2,2,2-trifluoroacetic Acid.1:1 2,2,2-trifluoroacetate]: the IC90 (as a rule, the concentration needed for an effect of 90%) was 0.17 µM.

In the case of `Cn1c(-c2cn(-c3cc4ccccc4s3)nc2C(F)(F)F)cnc1C(=O)Nc1ccc(C(=O)N2CCN(C(=O)C3CC[N+](CC(=O)O)(CC4CNC4)CC3)CC2)c(Cl)c1` (stereo not drawn) [Example 95, 2-[1-(Azetidin-3-ylmethyl)-4-[4-[4-[[5-[1-(benzothiophen-2-yl)-3-(trifluoromethyl)pyrazol-4-yl]-1-methyl-imidazole-2-carbonyl]amino]-2-chloro-benzoyl]piperazine-1-carbonyl]piperidin-1-ium-1-yl]Acetic Acid; Formic Acid; Formate], the IC90 amounted to 1.76 µM.

The assay is the same for the next values; noted with them: Acinetobacter baumannii, ATCC17961, 16 h, 90% growth inhibitory concentration against Acinetobacter baumannii ATCC17961, Iso-Sensitest broth, OD 600 nm over 16 h; read-out: ATCC 17961 IC90.
`Cn1c(-c2cn(-c3ccc4c(cc(C(=O)N5CCOCC5)n4C)n3)nc2C(F)(F)F)cnc1C(=O)Nc1ccc(C(=O)N2CCN(C(=O)[C@H]3CC[N@@+](CCCN)(CC(=O)O)CC3)CC2)c(Cl)c1` [Example 103, cis-2-[1-(3-aminopropyl)-4-[4-[2-chloro-4-[[1-methyl-5-[1-[1-methyl-2-(morpholine-4-carbonyl)pyrrolo[3,2-b]pyridin-5-yl]-3-(trifluoromethyl)pyrazol-4-yl]imidazole-2-carbonyl]amino]benzoyl]piperazine-1-carbonyl]piperidin-1-ium-1-yl]acetic acid;formate]: the IC90 was found to be 0.604 µM.

For the compound `Cn1c(-c2cn(-c3cc4[nH]c(C(=O)NO)cc4cn3)nc2C(F)(F)F)cnc1C(=O)Nc1ccc(C(=O)N2CCN(C(=O)[C@H]3CC[N@+](CC(=O)O)(CC4CNC4)CC3)CC2)c(Cl)c1` [Example 125, cis-2-[1-(azetidin-3-ylmethyl)-4-[4-[2-chloro-4-[[5-[1-[2-(hydroxycarbamoyl)-1H-pyrrolo[3,2-c]pyridin-6-yl]-3-(trifluoromethyl)pyrazol-4-yl]-1-methyl-imidazole-2-carbonyl]amino]benzoyl]piperazine-1-carbonyl]piperidin-1-ium-1-yl]acetic acid. 1:1 2,2,2-trifluoroacetate], the IC90 turned out to be 0.361 µM.

Turning to `Cn1c(-c2cn(-c3ccc(O)cn3)nc2C(F)(F)F)cnc1C(=O)Nc1ccc(C(=O)N2CCN(C(=O)C3CC[N+](CC(=O)O)(CC4CNC4)CC3)CC2)c(Cl)c1` (stereo not drawn) [Example 54, 2-[1-(azetidin-3-ylmethyl)-4-[4-[2-chloro-4-[[5-[1-(5-hydroxy-2-pyridyl)-3-(trifluoromethyl)pyrazol-4-yl]-1-methyl-imidazole-2-carbonyl]amino]benzoyl]piperazine-1-carbonyl]piperidin-1-ium-1-yl]acetic acid. 1:1 2,2,2-trifluoroacetate], the IC90 worked out at 0.55 µM.

Take `Cc1cc(NC(=O)c2ncc(-c3cn(-c4ccc(N)cc4F)nc3C(F)(F)F)n2C)ccc1C(=O)N1CCN(C(=O)[C@H]2CC[N@+](CC(=O)O)(CC3CNC3)CC2)CC1` [Example 152, cis-2-[4-[4-[4-[[5-[1-(4-amino-2-fluoro-phenyl)-3-(trifluoromethyl)pyrazol-4-yl]-1-methyl-imidazole-2-carbonyl]amino]-2-methyl-benzoyl]piperazine-1-carbonyl]-1-(azetidin-3-ylmethyl)piperidin-1-ium-1-yl]acetic acid. 1:1 2,2,2-trifluoroacetate]: the IC90 amounted to 0.421 µM.

As to `Cn1c(-c2cn(-c3ccc(N)cc3F)nc2C(F)(F)F)cnc1C(=O)Nc1ccc(C(=O)N2CCN(C(=O)N3CC[N+](CC(=O)O)(CC4CNC4)CC3)CC2)c(Cl)c1` [Example 140, 2-[4-[4-[4-[[5-[1-(4-amino-2-fluoro-phenyl)-3-(trifluoromethyl)pyrazol-4-yl]-1-methyl-imidazole-2-carbonyl]amino]-2-chloro-benzoyl]piperazine-1-carbonyl]-1-(azetidin-3-ylmethyl)piperazin-1-ium-1-yl]acetic acid. 1:1 2,2,2-trifluoroacetate], the IC90 amounted to 0.334 µM.

Take `Cn1c(-c2cn(-c3ccc(N)cc3F)nc2C(F)(F)F)cnc1C(=O)Nc1ccc(C(=O)N2CCN(C(=O)C3CC[N+](C)(CC(=O)O)CC3)CC2)c(Cl)c1` (stereo not drawn) [Example 193, 2-[4-[4-[4-[[5-[1-(4-amino-2-fluoro-phenyl)-3-(trifluoromethyl)pyrazol-4-yl]-1-methyl-imidazole-2-carbonyl]amino]-2-chloro-benzoyl]piperazine-1-carbonyl]-1-methyl-piperidin-1-ium-1-yl]acetic acid;iodide]: the IC90 came to 0.371 µM.

For `CN(C)c1ccc(-n2cc(-c3cnc(C(=O)Nc4ccc(C(=O)N5CCN(C(=O)[C@H]6CC[N@+](CC(=O)O)(CC7CNC7)CC6)CC5)c(F)c4)n3C)c(C(F)(F)F)n2)c(F)c1` [Example 109, cis-2-[1-(azetidin-3-ylmethyl)-4-[4-[4-[[5-[1-[4-(dimethylamino)-2-fluoro-phenyl]-3-(trifluoromethyl)pyrazol-4-yl]-1-methyl-imidazole-2-carbonyl]amino]-2-fluoro-benzoyl]piperazine-1-carbonyl]piperidin-1-ium-1-yl]acetic acid; 2,2,2-trifluoroacetate], the IC90 amounted to 0.213 µM.

With `Cn1c(-c2cn(-c3ccc(NC[C@H]4COCCN4)cn3)nc2C(F)(F)F)cnc1C(=O)Nc1ccc(C(=O)N2CCN(C(=O)C3CC[N+](CC(=O)O)(CC4CNC4)CC3)CC2)c(Cl)c1` (stereo partly drawn) [Example 47, 2-[1-(azetidin-3-ylmethyl)-4-[4-[2-chloro-4-[[1-methyl-5-[1-[5-[[(3S)-morpholin-3-yl]methylamino]-2-pyridyl]-3-(trifluoromethyl)pyrazol-4-yl]imidazole-2-carbonyl]amino]benzoyl]piperazine-1-carbonyl]piperidin-1-ium-1-yl]acetic acid. 1:1 2,2,2-trifluoroacetic acid. 1:1 2,2,2-trifluoroacetate], the IC90 came to 0.5 µM.

As to `Cn1c(-c2cn(-c3ccc4[nH]c(CN)cc4n3)nc2C(F)(F)F)cnc1C(=O)Nc1ccc(C(=O)N2CCN(C(=O)[C@H]3CC[N@+](CC(=O)O)(CC4CNC4)CC3)CC2)c(Cl)c1` [Example 184, cis-2-[4-[4-[4-[[5-[1-[2-(aminomethyl)-1H-pyrrolo[3,2-b]pyridin-5-yl]-3-(trifluoromethyl)pyrazol-4-yl]-1-methyl-imidazole-2-carbonyl]amino]-2-chloro-benzoyl]piperazine-1-carbonyl]-1-(azetidin-3-ylmethyl)piperidin-1-ium-1-yl]acetic acid;formate], the IC90 stood at 0.0642 µM.

Turning to `CNc1ccc(-n2cc(-c3cnc(C(=O)Nc4ccc(C(=O)N5CCN(C(=O)[C@H]6CC[N@+](CC(=O)O)(CC7CNC7)CC6)CC5)c(F)c4)n3C)c(C(F)(F)F)n2)c(F)c1` [Example 108, cis-2-[1-(azetidin-3-ylmethyl)-4-[4-[2-fluoro-4-[[5-[1-[2-fluoro-4-(methylamino)phenyl]-3-(trifluoromethyl)pyrazol-4-yl]-1-methyl-imidazole-2-carbonyl]amino]benzoyl]piperazine-1-carbonyl]piperidin-1-ium-1-yl]acetic acid; 2,2,2-trifluoroacetate], the IC90 amounted to 0.0587 µM.

Turning to `Cn1c(-c2cn(-c3ccc(NCC(C)(C)O)cc3F)nc2C(F)(F)F)cnc1C(=O)Nc1ccc(C(=O)N2CCN(C(=O)[C@H]3CC[N@+](CC(=O)O)(CC4CNC4)CC3)CC2)c(Cl)c1` [Example 164, cis-2-[1-(azetidin-3-ylmethyl)-4-[4-[2-chloro-4-[[5-[1-[2-fluoro-4-[(2-hydroxy-2-methyl-propyl)amino]phenyl]-3-(trifluoromethyl)pyrazol-4-yl]-1-methyl-imidazole-2-carbonyl]amino]benzoyl]piperazine-1-carbonyl]piperidin-1-ium-1-yl]acetic acid;formate], the IC90 amounted to 0.163 µM.

For `Cn1c(-c2cn(-c3cc4[nH]c(C(=O)N5C[C@H]6CNC[C@H]6C5)cc4cn3)nc2C(F)(F)F)cnc1C(=O)Nc1ccc(C(=O)N2CCN(C(=O)[C@H]3CC[N@+](CC(=O)O)(CC4CNC4)CC3)CC2)c(Cl)c1` [Example 112, cis-2-[4-[4-[4-[[5-[1-[2-[(3aS,6aR)-2,3,3a,4,6,6a-hexahydro-1H-pyrrolo[3,4-c]pyrrole-5-carbonyl]-1H-pyrrolo[3,2-c]pyridin-6-yl]-3-(trifluoromethyl)pyrazol-4-yl]-1-methyl-imidazole-2-carbonyl]amino]-2-chloro-benzoyl]piperazine-1-carbonyl]-1-(azetidin-3-ylmethyl)piperidin-1-ium-1-yl]acetic acid. 1:1 2,2,2-trifluoroacetate], the IC90 turned out to be 0.356 µM.

For the compound `Cn1c(-c2cn(-c3ncc4[nH]ccc4n3)nc2C(F)(F)F)cnc1C(=O)Nc1ccc(C(=O)N2CCN(C(=O)[C@H]3CC[N@+](CC(=O)O)(CC4CNC4)CC3)CC2)c(Cl)c1` [Example 165, cis-2-[1-(azetidin-3-ylmethyl)-4-[4-[2-chloro-4-[[1-methyl-5-[1-(5H-pyrrolo[3,2-d]pyrimidin-2-yl)-3-(trifluoromethyl)pyrazol-4-yl]imidazole-2-carbonyl]amino]benzoyl]piperazine-1-carbonyl]piperidin-1-ium-1-yl]acetic acid;formate], the IC90 worked out at 0.649 µM.

The record behind these values is patent publication US20250179066A1, “ZWITTERIONIC ANTIBACTERIAL COMPOUNDS” (Hoffmann-La Roche Inc., priority 2022, published 2025).
